Literature values as cited in patent US20140088058A1 (PARTHENOGEN SAGL, priority 2011, published 2014).

How the values were obtained:
[1] = tested on: FSH and LH plasma concentration
[2] = tested on: gonadotrophin surge, oocytes collected; details: 40 mg oral route since early days of FSH administration
[3] = tested on: LH surge
[4] = tested on: infarct formation

## CC#C[C@]1(O)CC[C@H]2[C@@H]3CCC4=CC(=O)CCC4=C3[C@@H](c3ccc(N(C)C)cc3)C[C@@]21C [mifepristone, 17β-hydroxyl-11β-(4-dimethyl-aminophenyl-1)-17α-(prop-1-ynyl)-estra-4,9-diene-3-one]
[1]; 10 or 100 mg per os
  effect on FSH and LH plasma concentration: reduction
[2]
  gonadotrophin surge: did not have a gonadotrophin surge
[3]; 1 mg per os for 5 days, from dominant follicle 14-16 mm
  circulating levels of FSH and LH: remained flat
[3]; 1 mg per os for 5 days, placebo surge within 1 to 3 days
  LH surge timing versus placebo: delayed in all treated women
DMSO
  solubility in dimethyl sulfoxide (DMSO): more than 20 mg/ml
ethanol
  solubility in ethanol: more than 20 mg/ml

## CC(=O)[C@H]1CC[C@H]2[C@@H]3CCC4=CC(=O)CC[C@]4(C)[C@H]3CC[C@]12C [progesterone]
[1]; 10 mg i.m. in mid- or late-follicular phase
  effect on plasma FSH and LH concentration: acute increase
[3]; after mifepristone 1 mg per os, progesterone i.m. 2.5 mg bid day 1, 5 mg bid day 2
  women with gonadotrophin surge within one day from first progesterone injection: 5 out of 6

## NC(=O)c1ccc[n+]([C@@H]2O[C@H](COP(=O)([O-])OP(=O)(O)OC[C@H]3O[C@@H](n4cnc5c(N)ncnc54)[C@H](O)[C@@H]3O)[C@@H](O)[C@H]2O)c1 [NAD+]
[4]; given by injection
  effect following rat brain ischemia: ineffective
[4]; nasal route, rat brain ischemia
  reduction of infarct formation: 90%
